The values that follow come from patent US20230025600A1, “TREATMENT OF CANCERS WITH ANTIBODY DRUG CONJUGATES (ADC) THAT BIND TO 191P4D12 PROTEINS” (AGENSYS, INC., priority 2019, published 2023).

Square brackets hold non-standard residues; d marks the D form. Peptide text beside a SMILES is read from it. * marks the point of attachment. Dolaproine = CO[C@@H]([C@@H]1CCCN1)[C@@H](C)C(=O)O; Dil = CC[C@H](C)[C@H](NC)[C@@H](CC(=O)O)OC; X1 = C[C@@H](N*)[C@@H](O)c1ccccc1; NMeV = CN[C@H](C(=O)O)C(C)C

Series [1] has as its target T1, CYP3A4 (Homo sapiens, UniProt P08684).
T1 construct: from tissue; host or cells: human subjects in vivo (endogenous enzyme)
In words: Metabolism in vitro. Format: in vitro ADME. The text has this:
Enfortumab vedotin-ejfv catabolism has not been studied in humans; however, it is expected to undergo catabolism to small peptides, amino acids, unconjugated MMAE, and unconjugated MMAE-related catabolites.

The nature of series [2]: Population pharmacokinetic analysis in patients. Type of series: in vivo, human. The text has this: Population pharmacokinetic analysis included data from 369 patients based on three Phase 1 studies and one Phase 2 study. Enfortumab vedotin-ejfv pharmacokinetics were characterized after single and multiple doses in patients with locally advanced or metastatic urothelial carcinoma and other solid tumors.
Steady-state concentrations of ADC and MMAE were reached after 1 treatment cycle.

For series [3], the system named is L5178Y mouse lymphoma. Briefly: L5178Y mouse lymphoma forward mutation assay. Format: cell-based. The text has this: (§1) MMAE was genotoxic in the rat bone marrow micronucleus study through an aneugenic mechanism. This effect is consistent with the pharmacological effect of MMAE as a microtubule-disrupting agent. MMAE was not mutagenic in the bacterial reverse mutation assay (Ames test) or the L5178Y mouse lymphoma forward mutation assay.

Series [4] relates to bacterial reverse mutation. Briefly: Bacterial reverse mutation assay (Ames test). Format: cell-based.
Source text: as §1

For series [5], the target named is P-glycoprotein (P-gp) (Homo sapiens, UniProt P08183). In words: Transporter systems in vitro. Type of series: in vitro ADME.
Sequence of P-glycoprotein (P-gp) (P08183 whole entry): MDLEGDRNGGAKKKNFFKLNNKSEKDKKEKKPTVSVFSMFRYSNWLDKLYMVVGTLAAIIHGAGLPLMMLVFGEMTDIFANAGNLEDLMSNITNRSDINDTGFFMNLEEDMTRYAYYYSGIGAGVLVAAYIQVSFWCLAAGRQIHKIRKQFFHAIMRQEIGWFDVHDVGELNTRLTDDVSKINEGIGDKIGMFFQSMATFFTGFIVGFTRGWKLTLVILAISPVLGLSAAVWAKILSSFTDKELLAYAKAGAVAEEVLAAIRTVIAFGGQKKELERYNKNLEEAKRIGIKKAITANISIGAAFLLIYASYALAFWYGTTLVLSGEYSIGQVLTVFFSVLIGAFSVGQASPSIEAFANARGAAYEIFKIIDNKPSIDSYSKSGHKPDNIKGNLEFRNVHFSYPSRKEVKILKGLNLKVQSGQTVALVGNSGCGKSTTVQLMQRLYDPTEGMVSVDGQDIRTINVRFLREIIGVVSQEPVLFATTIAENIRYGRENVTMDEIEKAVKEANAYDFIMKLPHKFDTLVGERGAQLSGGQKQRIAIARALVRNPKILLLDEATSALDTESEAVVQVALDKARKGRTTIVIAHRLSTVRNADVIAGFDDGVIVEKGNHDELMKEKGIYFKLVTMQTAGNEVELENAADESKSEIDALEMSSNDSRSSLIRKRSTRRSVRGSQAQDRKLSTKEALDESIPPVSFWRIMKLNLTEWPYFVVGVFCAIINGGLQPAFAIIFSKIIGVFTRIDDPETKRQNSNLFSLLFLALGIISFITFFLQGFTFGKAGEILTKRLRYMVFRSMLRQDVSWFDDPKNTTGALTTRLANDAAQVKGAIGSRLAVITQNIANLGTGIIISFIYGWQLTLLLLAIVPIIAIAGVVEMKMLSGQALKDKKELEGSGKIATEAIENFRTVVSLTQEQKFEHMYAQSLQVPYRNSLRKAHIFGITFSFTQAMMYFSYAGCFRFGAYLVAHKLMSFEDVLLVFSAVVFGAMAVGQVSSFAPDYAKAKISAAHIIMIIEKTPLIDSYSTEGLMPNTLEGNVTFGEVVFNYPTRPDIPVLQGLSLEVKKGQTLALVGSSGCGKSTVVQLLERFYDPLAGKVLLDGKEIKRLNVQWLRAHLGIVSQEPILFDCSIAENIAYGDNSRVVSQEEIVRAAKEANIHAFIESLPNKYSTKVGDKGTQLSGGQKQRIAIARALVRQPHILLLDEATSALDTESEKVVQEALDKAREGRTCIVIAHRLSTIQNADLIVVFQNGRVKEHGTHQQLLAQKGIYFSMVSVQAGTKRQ
The subject of series [6] is rat bone marrow. In words: Rat bone marrow micronucleus study. Type of series: in vivo. Particulars: aneugenic mechanism.
Source text: as §1

The test system of series [7] is acute myeloid leukemia (AML) at relapse. Particulars: administered alone; cited from earlier work.
For series [8], the system named is human breast cancer xenograft BT-483. Briefly: Efficacy in subcutaneous established human breast cancer xenograft BT-483 in SCID mice. Type of series: in vivo. To be noted: 5 mg/kg every four days for four doses, intravenous bolus; tumors about 100 mm^3 at start; compared to control ADC. How it is done:
In this experiment, human breast cancer BT-483 cells were used to generate stock xenografts, which were maintained by serial passages in SCID mice. Stock tumors were harvested sterilely and minced into 1 mm^3 pieces. Six (6) pieces were implanted into the flank of individual SCID mice. Tumors were allowed to grow untreated until they reached an approximate volume of 100 mm^3. The Ha22-2(2,4)6.1vcMMAE and the control ADC were dosed at 5 mg/kg every four (4) days for four (4) doses by intravenous bolus injection. The amount of ADC administered was based on the individual body weight of each animal obtained immediately prior to dosing. Tumor growth was monitored using caliper measurements every 3 to 4 days. Tumor volume was calculated as Width^2×Length/2, where width is the smallest dimension and length is the largest dimension.
(In xenograft studies the graft and the host belong to different species.)

The subject of series [9] is human lung cancer xenograft AG-L4. Briefly: Efficacy in subcutaneous established human lung cancer xenograft AG-L4 in SCID mice. Format: in vivo. Particulars: 10 mg/kg every seven days for two doses, intravenous bolus; tumors about 200 mm^3 at start; compared to control ADC. How it is done: In another experiment, patient-derived lung cancer xenograft AG-L4 was maintained by serial passages in SCID mice. Stock tumors were harvested sterilely and minced into 1 mm^3 pieces. Six (6) pieces were implanted into the flank of individual SCID mice. Tumors were allowed to grow untreated until they reached an approximate volume of 200 mm^3. The Ha22-2(2,4)6.1vcMMAE and the control ADC were dosed at 10 mg/kg every seven (7) days for two doses by intravenous bolus injection. The amount of ADC administered was based on the individual body weight of each animal obtained immediately prior to dosing. Tumor growth was monitored using caliper measurements every 3 to 4 days. Tumor volume was calculated as Width^2×Length/2, where width is the smallest dimension and length is the largest dimension.

Setting [10] is: unconjugated MMAE, after first treatment cycle of 1.25 mg/kg, Days 1, 8 and 15.

T1 sequence (P08684 whole entry): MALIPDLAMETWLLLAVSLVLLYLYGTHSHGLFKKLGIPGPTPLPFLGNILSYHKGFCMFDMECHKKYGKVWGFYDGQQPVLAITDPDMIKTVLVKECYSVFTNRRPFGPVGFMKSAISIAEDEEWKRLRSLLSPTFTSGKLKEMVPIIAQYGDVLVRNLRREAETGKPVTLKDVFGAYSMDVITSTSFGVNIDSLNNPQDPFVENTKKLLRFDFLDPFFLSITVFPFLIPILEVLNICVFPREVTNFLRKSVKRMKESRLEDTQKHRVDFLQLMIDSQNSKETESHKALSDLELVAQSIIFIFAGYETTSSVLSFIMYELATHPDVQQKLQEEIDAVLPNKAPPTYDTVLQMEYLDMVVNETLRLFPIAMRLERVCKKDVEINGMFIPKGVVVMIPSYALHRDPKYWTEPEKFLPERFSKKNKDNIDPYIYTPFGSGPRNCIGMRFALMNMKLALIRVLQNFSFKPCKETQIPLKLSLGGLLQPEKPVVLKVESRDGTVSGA

As for `CC[C@H](C)[C@@H]([C@@H](CC(=O)N1CCC[C@H]1[C@H](OC)[C@@H](C)C(=O)N[C@H](C)[C@@H](O)c1ccccc1)OC)N(C)C(=O)[C@@H](NC(=O)[C@@H](NC)C(C)C)C(C)C` [MMAE, monomethyl auristatin E] (H-[NMeV]V[Dil][Dolaproine]-X1), in [1], the metabolism in vitro result is “primarily metabolized by CYP3A4”. Also, in [2] (1.25 mg/kg, compared to normal renal function), the “exposure (AUC) in mild, moderate or severe renal impairment” value is reported as “No significant differences”. For the same molecule, the “AUC increase in mild hepatic impairment” value in series [2] (n=31, compared to normal hepatic function, population pharmacokinetics analysis) stood at 48%. Besides, in series [2] (patients), the “accumulation following repeat administration” value was “Minimal accumulation”, the “elimination of MMAE” value was “limited by its rate of release from enfortumab vedotin-ejfv”, the “mean clearance (CL)” value amounted to 2.7 L/h and the “steady-state concentrations reached after” value was 1 treatment cycle. In addition, the “time of peak MMAE concentrations after enfortumab vedotin-ejfv dosing” value in series [2] (patients) was “approximately 2 days”. This molecule also registered an elimination half-life in series [2] (patients, multi-exponential declines) of 57.6 h. For the same molecule, in [2] (setting [10]), the “AUC0-28 d, Mean (±SD)” value is reported as 69 (42) ng · d/mL; the “Cmax, Mean (±SD)” value is recorded as 4.8 (2.7) ng/mL; the “Ctrough, 0-28 d (pre-dose concentration on day 28), Mean (±SD)” value is on record as 0.57 (0.58) ng/mL. The “mutagenicity in L5178Y mouse lymphoma forward mutation assay” value in series [3] is recorded as “not mutagenic”. The “mutagenicity in Ames test” value in series [4] is on record as “not mutagenic”. Besides, in series [5], the P-gp inhibition entry is given as “not an inhibitor” and the P-gp substrate entry is “substrate”. For the same molecule, in series [6], the “genotoxicity in rat bone marrow micronucleus study” value is recorded as “genotoxic”.

Turning to “CT-011: anti-PD-1 antibody, a humanized antibody”, the “response in acute myeloid leukemia (AML) at relapse” value in series [7] is recorded as “failed to show response”.

On to “Ha22-2(2,4)6.1-vcMMAE: 191P4D12 ADC: antibody Ha22-2(2,4)6.1 (murine hybridoma cell line-derived) conjugated to MMAE via vc linker”, for which the “growth of BT-483 breast tumor xenografts” value in series [8] is recorded as “significantly inhibited”. In series [9], the “growth of AG-L4 lung cancer xenografts” value is reported as “significantly inhibited”.
